Laboratory results reported in patent US20030203035A1, “Allergen neutralization compositions” (The Procter & Gamble Company, priority 2000, published 2003).

Target: T1, Der f 2 mite extract (Dermatophagoides farinae, UniProt Q00855)
T1 construct: Add 1.0 ml of 20 ug/ml Der f 2 mite extract; from tissue; host or cells: house dust mite extract (Dermatophagoides farinae)
T1 sequence (Q00855 18-146): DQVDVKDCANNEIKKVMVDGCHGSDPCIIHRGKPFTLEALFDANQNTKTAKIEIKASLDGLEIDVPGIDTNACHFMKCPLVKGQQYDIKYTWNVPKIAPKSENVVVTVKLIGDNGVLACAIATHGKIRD
Assay: Efficacy Determination Protocol, ELISA (allergen neutralization)
Type: biochemical
Conditions: for Average Absorbance / % of Allergen Remaining: 1.4 wt.% of ion; for Average Absorbance: 490 nm, water control 1.7; for % of Allergen Remaining: Der f 2, normalized to water control = 100
Source text: The efficacy of an allergen neutralization composition can be determined by the ELISA protocol. Enzyme-linked immunosorbent assay (“ELISA”) is a highly sensitive assay technique for detection and measurement of antigens or antibodies in solution. The assay uses enzyme-linked antigens or antibodies to amplify an antigen-antibody reaction. A single enzyme-linked antibody-antigen complex can convert orders of magnitude more of colorless substrate molecules into detectable colored products, thus considerably amplifying the original antigen-antibody reaction. The antigen or antibody is adsorbed onto the surface of the well of a microtiter plate, and all the relevant reactions take place in solution inside the well. While the following protocol will be easily understood by those skilled in the art, for a more detailed explanation please see Konishi, E. and Uehara, K. Enzyme-linked immunosorbent assay for quantifying antigens of Dermatophagoides farinae and D. pteronyssinus (Acari: Pyroglyphidae) in house dust samples, 1990, Entomologist Society of America, 27 (6), p. 993-998.
It is understood that those skilled in the art of allergen suppression will be aware of numerous variations to the protocol given below. For example, the monoclonal antibody may be substituted with a similar antibody, for example Der f 1 for Der f 2. But a standard, in this case water, is used and the results for the samples that contain active ingredients are normalized against the standard and the results reported as percentage of allergen remaining That is, the amount of allergen that is not neutralized. Thus, the allergen neutralization results for similar, but not identical antibodies should be substantially the same when normalized to the standard. Both Der f 1 and Der f 2 were tested for various compositions, but Der f 2 was chosen as the standard for the present Efficacy Determination Protocol because it is more difficult to neutralize. To be clear, the values for the % of allergen remaining that are reported in Table I will generally improve (that is, decrease) when tested with Der f 1.
At least two samples are prepared. One sample contains only distilled water and samples of one or more allergen neutralization compositions containing the allergen neutralization active, for example ZnCl2, tannin, etc. The samples are all treated according to the same protocol, and the distilled water sample is used as the control. All samples are prepared as follows:
1) Add 1.0 ml of 20 ug/ml Der f 2 mite extract to 0.8 ml of the sample composition (either the allergen neutralization composition or water for the control). Mix well and let sit for 1 hour at room temp.
2) Add 2.2 ml of 20% skim milk in Phosphate Buffer Saline (PBS).
3) Mix well by vortexing and centrifuge at 12000 rpm (approx. 17000×g) for 1 hour.
4) The supernatant is used for the ELISA protocol.
Each well of a microplate is coated at 4° C. overnight with 100 μl of Der f 2 monoclonal antibody (clone 15E11, from Asahi Breweries., AB-A-4) at a protein concentration of […] of Phosphate Buffer Saline (PBS), pH 7.4 containing 0.1% sodium azide. The monoclonal antibody is discarded and the plate is incubated with 100 μL of 1% BSA PBS containing 0.1% sodium azide for 1 hour. The plate is washed 3 times with PBS containing 0.05% Tween 20 (PBS-T). 100 μl of an allergen sample is added and incubated for 1 hour at 37° C.
Use 3× dilutions of a reference Dermatophagoides farinae crude extract (commercially available from LSL) to make the standard curve. The curve is made using 6.9 nanogram-mite extract equivalent/ml to 5 microgram-mite extract equivalent/ml. Wash plate with PBS-T for 3 times. 100 μl of Horse Radish Peroxidase (HRP) conjugated anti Der f 2 antibody (clone 13A4) is added at 40 ng/ml and the plate is incubated at 37° C. for 1 hour. The plate is then washed with PBS-T 3 times and then washed with water 3 times. […]

[1] = weight % of metal ion in the composition, inferred from Table III

[Cl][Fe][Cl] [FeCl2]
Average Absorbance (pH 2.9): 0.84
% of Allergen Remaining (pH 2.9): 44%

O=S(=O)([O-])[O-].[Fe+2] [FeSO4]
Average Absorbance (pH 3.5): 1.13
% of Allergen Remaining (pH 3.5): 54%

[Cl][Sn][Cl] [SnCl2]
Average Absorbance (pH 2.1): 0.54
% of Allergen Remaining (pH 2.1): 32%
Average Absorbance (pH 3.2): 0.25
% of Allergen Remaining (pH 3.2): 18%
effective amount if 80% removal is necessary [1]: about 1.4%
effective amount to remove 50% of allergens [1]: less than 1.4%

O=S(=O)([O-])[O-].[Sn+2] [SnSO4]
Average Absorbance (pH 2.0): 0.28
% of Allergen Remaining (pH 2.0): 22%

[Cl-].[Cl-].[Zn+2] [ZnCl2, Zinc chloride]
Average Absorbance (pH 3.6): 0.70
% of Allergen Remaining (pH 3.6): 34%
